Consider 17 molecules from patent US8470829B2 (priority 2004, dated 2013).

One may read the pIC50 as the IC50 on a negative log10 scale, so that one unit is a factor of ten.

Assay [1] deals with T1, human androgen receptor (Homo sapiens, UniProt P10275).
T1 construct: expressed in transfected cells
T1 sequence (P10275 1-920): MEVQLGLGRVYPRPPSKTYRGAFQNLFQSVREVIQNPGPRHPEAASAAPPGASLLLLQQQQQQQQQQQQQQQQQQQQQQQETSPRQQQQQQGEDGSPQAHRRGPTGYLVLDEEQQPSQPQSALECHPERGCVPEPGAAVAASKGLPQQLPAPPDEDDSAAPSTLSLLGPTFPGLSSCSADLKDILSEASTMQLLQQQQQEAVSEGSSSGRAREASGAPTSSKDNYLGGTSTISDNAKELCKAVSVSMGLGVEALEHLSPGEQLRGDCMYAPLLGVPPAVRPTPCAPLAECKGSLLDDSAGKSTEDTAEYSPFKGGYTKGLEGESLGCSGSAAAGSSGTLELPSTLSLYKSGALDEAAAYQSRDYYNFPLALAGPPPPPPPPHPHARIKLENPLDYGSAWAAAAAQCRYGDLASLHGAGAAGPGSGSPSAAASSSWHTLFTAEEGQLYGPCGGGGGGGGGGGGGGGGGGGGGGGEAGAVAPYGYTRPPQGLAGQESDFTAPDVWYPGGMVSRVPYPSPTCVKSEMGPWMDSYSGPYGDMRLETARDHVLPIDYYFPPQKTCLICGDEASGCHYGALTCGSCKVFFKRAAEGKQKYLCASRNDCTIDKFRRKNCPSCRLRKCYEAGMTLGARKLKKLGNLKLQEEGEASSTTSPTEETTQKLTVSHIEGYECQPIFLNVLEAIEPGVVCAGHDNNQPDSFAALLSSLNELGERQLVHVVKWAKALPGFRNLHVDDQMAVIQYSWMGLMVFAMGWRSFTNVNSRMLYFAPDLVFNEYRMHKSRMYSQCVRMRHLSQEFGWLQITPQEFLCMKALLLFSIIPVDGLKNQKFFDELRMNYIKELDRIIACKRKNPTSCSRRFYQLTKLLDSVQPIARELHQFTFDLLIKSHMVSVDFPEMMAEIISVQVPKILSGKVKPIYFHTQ
Put plainly: Investigation of antagonist effect on androgen receptor (reporter gene assay, 11A11B2 cells, with DHT). The class given is cell-based. Here is the method: (§1) HeLa cells (purchased from Dai-Nippon Seiyaku K. K.) were cultured overnight in Dulbecco's Modified Eagle Medium containing no phenol red, but containing 3% charcoal-treated fetal bovine serum (hereafter referred to as DCC-FBS) (this medium is hereafter referred to as phenol-red-free DMEM). An MMTV-Luc-Hyg vector (reporter plasmid with mouse mammary tumor virus long terminal repeat, containing an androgen response element and a hygromycin resistance gene: a vector obtained by substituting a chloramphenicol acetyl transferease gene of a GM-CAT vector (A.T.C.C No. 67282) purchased from the A.T.C.C. with the firefly luciferase gene, and inserting a hygromycin resistance gene as a drug resistant gene), and pSG5-hAR-neo (human androgen receptor expression vector: a vector having an androgen receptor gene under the control of the SV40 promoter, and having a neomycin resistance gene inserted as a drug resistance gene) were transfected into the HeLa cells using an FuGENE™ 6 Transfection Reagent (obtained from Roche).
(§2) The clone cells thus obtained (11A11B2 cells) were maintained and propagated using DMEM containing 400 μg/mL neomycin, 200 μg/mL hygromycin and 10% FBS, and were propagated using phenol-red-free DMEM containing 10% DCC-FBS three to four days prior to the performance of an androgen receptor reporter gene assay.
The 11A11B2 cells were inoculated in a white clear-bottomed 96-well microplate (COSTAR) so that the cell concentration was 1.0×10^4/well, and were cultured overnight. The assay medium containing DHT was added so that the final concentration of DHT was 0.1 nmol/L, and samples of the assay medium containing the compounds of the Examples or compounds of the Comparative Examples were added so that the final concentrations of the compounds of the Examples or compounds of the Comparative Examples were 1, 10, 100, 1,000 and 10,000 nmol/L, respectively. After culturing for 48, hours, the transcription activity values were measured. The transcription activity was measured using a Bright-Glo™ Luciferase Assay System (Promega).
The transcription activity rates of the compounds of the Examples were calculated from the transcription activity measured by the abovementioned method, with the transcription activity value obtained at 0.1 nmol/L DHT taken as 100%, and the transcription activity value in the case of the assay, medium alone taken as 0%.
(Reporter assays use an easily measured gene product as a stand-in for the process of interest.)

The target in assay [2] is T1, human androgen receptor. Put plainly: Measurement of agonist effect on androgen receptor (reporter gene assay, 11A11B2 cells). It is filed as cell-based. The following applies: compound concentration showing a transcription activity of 5% (0.1 nmol/L DHT = 100%, assay medium alone = 0%), 48 hours. Here is the method:
as §1, §2
The 11A11B2 cells were inoculated in a white clear-bottomed 96-well microplate (COSTAR) so that the cell concentration was 1.0×10^4/well, and were cultured overnight using phenol-red-free DMEM containing 3% DCC-FBS (hereafter referred to as the assay medium). Samples of the assay medium containing the compounds of the Examples and compounds of the Comparative Examples were added so that the final concentrations of the compounds of the Examples and compounds of the Comparative Examples were 1, 10, 100, 1,000 and 10,000 nmol/L), and the cells were cultured for 48 hours, after which the transcription activity value was measured. The transcription activity was measured using a Bright-Glo™ Luciferase Assay System (Promega).
The transcription activity rates of the compounds of the Examples were calculated from the transcription activity measured by the abovementioned method, with the transcription activity value obtained at 0.1 nmol/L DHT taken as 100%, and the transcription activity value in the case of the assay medium alone taken as 0%. The compound concentration showing a transcription activity of 5% (EC5 value) was calculated from a linear equation for two points on either side of 5%.

[3] abbreviates: with 0.1 nmol/L DHT, transcription activity rate of Test Example 1 subtracted, 11A11B2 cells, 48 hours, read-out: IC50.

The structures appear in SMILES notation. pIC50: −log10 of the molar value. Read-outs that look alike come from different tables or passages of the source.

On to `CCCS(=O)(=O)N1CCC(N2C(=O)N(c3ccc(C#N)c(Cl)c3C)C(=O)C2(C)C)CC1` [Example 11, 4-[3-(1-propanesulfonylpiperidin-4-yl)-4,4-dimethyl-2,5-dioxoimidazolidin-1-yl]-2-chloro-3-methylbenzonitrile], for which the pIC50 in assay [1] (setting [3]) is 6.52. In addition, the EC5 in assay [2] is above 10 µM.

For the molecule `CCC(=O)N1CCC(N2C(=O)N(c3ccc(C#N)c(Cl)c3C)C(=O)C2(C)C)CC1` [Example 12, 4-[3-(1-propionylpiperidin-4-yl)-4,4-dimethyl-2,5-dioxoimidazolidin-1-yl]-2-chloro-3-methylbenzonitrile], the negative logarithm of the IC50 (pIC50) in assay [1] (setting [3]) was 6.15. In assay [2], this molecule returned an EC5 above 10 µM.

In turn, `CC(=O)Nc1nc2cc(N3C(=S)N(c4ccc(C#N)c(Cl)c4)C(=O)C3(C)C)ccc2s1` [Example 16, 4-[3-(2-acetylaminobenzothiazol-5-yl)-4,4-dimethyl-5-oxo-2-thioxoimidazolidin-1-yl]-2-chlorobenzonitrile] showed a negative logarithm of the IC50 (pIC50) in assay [1] of 7.40. The molecule further came in with an EC5 in assay [2] of 3 µM.

Molecule `CC1(C)C(=O)N(c2ccc(C#N)c(C(F)(F)F)c2)C(=S)N1c1ccc2sc(NC(N)=O)nc2c1` [Example 18, {5-[3-(4-cyano-3-trifluoromethylphenyl)-5,5-dimethyl-4-oxo-2-thioxoimidazolidin-1-yl]-benzothiazol-2-yl}urea] gave a pIC50 in assay [1] of 7.00. Further, the EC5 in assay [2] was above 10 µM.

As to `COc1cc(N2C(=O)C(C)(C)N(c3ccc4sc(NC(N)=O)nc4c3)C2=S)ccc1C#N` [Example 19, {5-[3-(4-cyano-3-methoxyphenyl)-5,5-dimethyl-4-oxo-2-thioxoimidazolidin-1-yl]-benzothiazol-2-yl}urea], in assay [1] (setting [3]), the negative-log IC50 (pIC50) is 6.70. Moreover, in assay [2], the EC5 was above 10 µM.

Take `CC1(C)C(=O)N(c2ccc(C#N)c(Cl)c2)C(=S)N1c1ccc2sc(NC(N)=O)nc2c1` [Example 20, {5-[3-(4-cyano-3-chlorophenyl)-5,5-dimethyl-4-oxo-2-thioxoimidazolidin-1-yl]-benzothiazol-2-yl}urea]: in assay [1], the pIC50 is 7.00. Moreover, in assay [2], the EC5 was above 10 µM.

Regarding `CC1(C)C(=O)N(c2ccc(C#N)c(C(F)(F)F)c2)C(=O)N1c1ccc(NC(=O)CN2CCNCC2)c(Cl)c1` [Example 21, N-{2-chloro-4-[3-(4-cyano-3-trifluoromethylphenyl)-5,5-dimethyl-2,4-dioxoimidazolidin-1-yl]-phenyl}-2-piperazin-1-ylacetamide], the pIC50 in assay [1] (setting [3]) was 6.30. The molecule further came in with an EC5 in assay [2] above 10 µM.

With `CC(=O)Nc1cc(N2C(=S)N(c3ccc(C#N)c(C(F)(F)F)c3)C(=O)C2(C)C)ccc1Cl` [Example 22, 4-[3-(3-acetylamino-4-chlorophenyl)-4,4-dimethyl-5-oxo-2-thioxoimidazolidin-1-yl]-2-trifluoromethylbenzonitrile], the negative logarithm of the IC50 (pIC50) in assay [1] (setting [3]) is 6.70. In assay [2], this molecule registered an EC5 above 10 µM.

Take `CC(C)OC(=O)Nc1cc(N2C(=O)N(c3ccc(C#N)c(C(F)(F)F)c3)C(=O)C2(C)C)ccc1Cl` [Example 23, 4-[3-(3-isopropoxycarbonylamino-4-chlorophenyl)-4,4-dimethyl-2,5-dioxoimidazolidin-1-yl]-2-trifluoromethylbenzonitrile]: in assay [1] (setting [3]), the pIC50 is 6.30. In assay [2], this molecule gave an EC5 above 10 µM.

As to `CCOC(=O)Nc1cc(N2C(=O)N(c3ccc(C#N)c(OC)c3)C(=O)C2(C)C)ccc1Cl` [Example 24, 4-[3-(3-ethoxycarbonylamino-4-chlorophenyl)-4,4-dimethyl-2,5-dioxoimidazolidin-1-yl]-2-methoxybenzonitrile], the negative logarithm of the IC50 (pIC50) in assay [1] (setting [3]) is 6.70. This molecule came in with an EC5 in assay [2] above 10 µM.

For `COc1cc(N2C(=O)N(c3ccc(Cl)c(NC(=O)OC(C)C)c3)C(C)(C)C2=O)ccc1C#N` [Example 25, 4-[3-(3-isopropoxycarbonylamino-4-chlorophenyl)-4,4-dimethyl-2,5-dioxoimidazolidin-1-yl]-2-methoxybenzonitrile], the negative-log IC50 (pIC50) in assay [1] (setting [3]) was 6.40. In assay [2], this molecule returned an EC5 above 10 µM.

As for `CCCOC(=O)Nc1cc(N2C(=O)N(c3ccc(C#N)c(OC)c3)C(=O)C2(C)C)ccc1Cl` [Example 26, 4-[3-(3-n-propoxycarbonylamino-4-chlorophenyl)-4,4-dimethyl-2,5-dioxoimidazolidin-1-yl]-2-methoxybenzonitrile], in assay [1] (setting [3]), the negative logarithm of the IC50 (pIC50) was 6.70. Also, in assay [2], the EC5 was above 10 µM.

Consider `CC1(C)C(=O)N(c2ccc(C#N)c(C(F)(F)F)c2)C(=O)N1c1ccc(Cl)c(NC(=O)OCCCO)c1` [Example 27, {2-chloro-5-[3-(4-cyano-3-trifluoromethylphenyl)-5,5-dimethyl-2,4-dioxoimidazolidin-1-yl]phenyl}-carbamic acid 3-hydroxypropyl ester], for which the pIC50 in assay [1] (setting [3]) was 6.40. In assay [2], the EC5 is above 10 µM.

With `CN(C)CCOC(=O)Nc1cc(N2C(=O)N(c3ccc(C#N)c(C(F)(F)F)c3)C(=O)C2(C)C)ccc1Cl` [Example 28, {2-chloro-5-[3-(4-cyano-3-trifluoromethylphenyl)-5,5-dimethyl-2,4-dioxoimidazolidin-1-yl]phenyl}-carbamic acid 2-dimethylaminoethyl ester], the pIC50 in assay [1] (setting [3]) is 6.30. For the same molecule, the EC5 in assay [2] was above 10 µM.

In the case of `CN1CCN(CCOC(=O)Nc2cc(N3C(=O)N(c4ccc(C#N)c(C(F)(F)F)c4)C(=O)C3(C)C)ccc2Cl)CC1` [Example 29, {2-chloro-5-[3-(4-cyano-3-trifluoromethylphenyl)-5,5-dimethyl-2,4-dioxoimidazolidin-1-yl]phenyl}-carbamic acid 2-(4-methylpiperazin-1-yl)ethyl ester], the pIC50 in assay [1] (setting [3]) is 6.30. In assay [2], this molecule showed an EC5 above 10 µM.

Regarding `COC(=O)Nc1cc(N2C(=O)N(c3ccc(C#N)c(OC)c3)C(=O)C2(C)C)ccc1F` [Example 30], the pIC50 in assay [1] (setting [3]) is 6.30. The molecule further showed an EC5 in assay [2] above 10 µM.

Molecule `CN(C)CCOC(=O)Nc1cc(N2C(=O)N(c3ccc(C#N)c(Cl)c3)C(=O)C2(C)C)ccc1Cl` [Example 31, {2-chloro-5-[3-(4-cyano-3-chlorophenyl)-5,5-dimethyl-2,4-dioxoimidazolidin-1-yl]phenyl}-carbamic acid 2-dimethylaminoethyl ester] gave a pIC50 in assay [1] of 6.22. Further, the EC5 in assay [2] was above 10 µM.
